Data on 1 compound can be found in ChEMBL document CHEMBL5046281, “N-Aryl Mercaptopropionamides as Broad-Spectrum Inhibitors of Metallo-β-Lactamases” (J Med Chem, 2022).

Converted amounts (≈) assume the structure as drawn. Where only a bound is given, the exact number is not on record here.

Experiment [1] concerns Enterobacter cloacae. As to the kind of experiment: Antibacterial activity against VIM-1 producing Enterobacter cloacae T2353 clinical isolates assessed as inhibition of bacterial growth by microdilution method. Format: functional. On the technique in general: In broth dilution the organism is exposed to a series of concentrations in liquid medium.
The test system of experiment [2] is Escherichia coli. As to the kind of experiment: Antibacterial activity against NDM-7 producing Escherichia coli T2239 clinical isolates assessed as inhibition of bacterial growth by microdilution method. It counts as functional.
The next experiment concerns Acinetobacter baumannii. Kind of experiment: Antibacterial activity against OXA-23 producing Acinetobacter baumannii T2434 clinical isolates assessed as inhibition of bacterial growth by microdilution method. It counts as functional.
The subject of experiment [3] is Pseudomonas aeruginosa. Kind of experiment: Antibacterial activity against VIM-1 producing Pseudomonas aeruginosa T2357 clinical isolates assessed as inhibition of bacterial growth by microdilution method. It counts as functional.
In experiment [4] the test system is Escherichia coli. As to the kind of experiment: Antibacterial activity against NDM-5 producing Escherichia coli T2351 clinical isolates assessed as inhibition of bacterial growth by microdilution method.
Experiment [5] relates to Klebsiella pneumoniae. As to the kind of experiment: Antibacterial activity against NDM-1 producing Klebsiella pneumoniae T2301 clinical isolates assessed as inhibition of bacterial growth by microdilution method. Format: functional.
Experiment [6] deals with Escherichia coli. As to the kind of experiment: Antibacterial activity against KPC-2 producing Escherichia coli T2435 clinical isolates assessed as inhibition of bacterial growth by microdilution method. Format: functional.
Another experiment relates to Serratia marcescens. Kind of experiment: Antibacterial activity against NDM-1 producing Serratia marcescens T2352 clinical isolates assessed as inhibition of bacterial growth by microdilution method. Format: functional.
Experiment [7] relates to Klebsiella pneumoniae. As to the kind of experiment: Antibacterial activity against imipenem-resistant NDM-1-producing Klebsiella pneumoniae T2301 infected in Galleria mellonella larvae assessed as survival rate at 0.12 ug injected via proleg measured after 3 days by Kaplan-Meier method. Conditions: dose 0.12 µg; time 3 day. Format: functional.
Experiment [8] deals with Enterobacter cloacae. Kind of experiment: Antibacterial activity against GIM-1 producing Enterobacter cloacae T2218 clinical isolates assessed as inhibition of bacterial growth by microdilution method. Format: functional.
The subject of experiment [9] is Pseudomonas aeruginosa. As to the kind of experiment: Antibacterial activity against IMP-1 producing Pseudomonas aeruginosa T2325 clinical isolates assessed as inhibition of bacterial growth by microdilution method.
Experiment [10] concerns Enterobacter cloacae. Kind of experiment: Antibacterial activity against NDM-1 producing Enterobacter cloacae T2311 clinical isolates assessed as inhibition of bacterial growth by microdilution method. Format: functional.

In the case of `C[C@@H](O)[C@H]1C(=O)N2C(C(=O)O)=C(SCCNC=N)C[C@H]12` [IMIPENEM ANHYDROUS], the MIC – broadly, the least concentration at which growth counts as inhibited – in the experiment with Enterobacter cloacae [1] is 4 µg/mL (≈ 13.4 µM); in the experiment with Escherichia coli [2], 32 µg/mL (≈ 107 µM); with Acinetobacter baumannii it was 32 µg/mL (≈ 107 µM); in the experiment with Pseudomonas aeruginosa [3], 256 µg/mL (≈ 855 µM); in the experiment with Escherichia coli [4], 8 µg/mL (≈ 26.7 µM); in the experiment on Klebsiella pneumoniae [5], 16 µg/mL (≈ 53.4 µM). The MIC with Escherichia coli [6] was 4 µg/mL (≈ 13.4 µM); in the experiment on Serratia marcescens, 256 µg/mL (≈ 855 µM); in the experiment on Enterobacter cloacae [8], 2 µg/mL (≈ 6.68 µM); with Pseudomonas aeruginosa [9] it was 16 µg/mL (≈ 53.4 µM); in the experiment on Enterobacter cloacae [10] it was 8 µg/mL (≈ 26.7 µM). In addition, the Activity entry in the experiment on Klebsiella pneumoniae [7] is on record as “<=25%”.
